From PMC6934184, “Selective DNA-PKcs inhibition extends the therapeutic index of localized radiotherapy and chemotherapy” (The Journal of Clinical Investigation, 2019)

Target: T1, PAK7 (KIAA1264) (Homo sapiens, UniProt Q9P286)
T1 construct: purchased Thermo Fisher Scientific (Life Technologies) SelectScreen
Test: SelectScreen Z'LYTE
Assay type: biochemical
How it was run: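 SelectScreen broad panel; activity (Z'LYTE, Adapta) plus binding formats. ATP: Km app for CSF1R Z'LYTE; 10 for CAMK1 Adapta. Readout = % per kinase.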

T1 sequence (Q9P286 whole entry): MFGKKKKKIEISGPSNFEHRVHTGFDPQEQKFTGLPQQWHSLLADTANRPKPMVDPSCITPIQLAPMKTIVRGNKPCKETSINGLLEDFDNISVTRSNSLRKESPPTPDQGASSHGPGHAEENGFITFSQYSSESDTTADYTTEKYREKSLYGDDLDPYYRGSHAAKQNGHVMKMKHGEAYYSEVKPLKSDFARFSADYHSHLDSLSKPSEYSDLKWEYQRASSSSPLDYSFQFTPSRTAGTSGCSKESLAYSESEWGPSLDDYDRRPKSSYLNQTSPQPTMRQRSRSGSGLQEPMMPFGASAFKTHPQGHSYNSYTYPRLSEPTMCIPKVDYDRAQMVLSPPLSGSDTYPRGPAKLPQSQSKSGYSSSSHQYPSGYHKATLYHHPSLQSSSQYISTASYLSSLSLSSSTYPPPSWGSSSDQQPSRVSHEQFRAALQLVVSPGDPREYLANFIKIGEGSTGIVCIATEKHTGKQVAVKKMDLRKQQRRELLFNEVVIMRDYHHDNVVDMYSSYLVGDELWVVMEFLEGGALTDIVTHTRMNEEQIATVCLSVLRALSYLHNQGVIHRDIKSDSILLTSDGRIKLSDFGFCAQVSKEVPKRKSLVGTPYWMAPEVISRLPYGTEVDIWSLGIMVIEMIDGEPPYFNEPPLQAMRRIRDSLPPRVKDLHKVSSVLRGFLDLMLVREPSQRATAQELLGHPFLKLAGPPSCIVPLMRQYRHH

For `CN(C(=O)CN1CCOCC1)c1ccc2sc3c(-c4cccc5c(=O)cc(N6CC7CCC(C6)O7)oc45)cccc3c2c1` [NU5455], the inhibition at 1 µM was 5.7%.
